This note sets out measurements from patent US4555513A, “1,2 Dihydro- and 1,2,3,4-tetrahydro quinolylacetic acids and analgesic use thereof” (priority 1982, dated 1985).

A word on the mortality: it is the percentage killed.

Series [1] is described as follows: Acute toxicity (oral, mortality after 72 hours). The following applies: mouse, in vivo. As to the method: Groups of 10 male dd mice weighing some 18 g were orally administered the examined drugs and the number of death p 72 hours later was recorded.
Series [2] has as its system dd mice. The experiment in a line: Analgesic effects by a modified Haffner method. The series is classed as in vivo, mouse (dd mice). Conditions: with morphine hydrochloride 2 mg/kg s.c. As to the method:
Group of 10 dd mice were orally administered the examined drugs and 30 minutes later 2 mg/kg of morphine hydrochloride, the threshold dose, was injected subcutaneously. At 15, 30, 45 and 60 minutes thereafter, the root of mouse's tail was squeezed with a Kocher's forceps.

Series [3] relates to dd mice. As to the kind of experiment: Analgesic effects by acetic acid writhing test. The series is classed as in vivo, mouse (male dd mice). As to the method:
30 minutes after the examined drug was orally given, 0.1 ml/10 g of 0.6% acetic acid solution was intraperitoneally administered to group of 10 male dd mice weighing some 18 g. The number of stretching was calculted during an observation period of 15 to 20 minutes after acetic acid treatment. The average inhibition rate of stretching among 8 animals was regarded as the inhibition rate of the drug, excluding 2 animals showing maximum and minimum numbers of stretching.
On the technique in general: In writhing tests, fewer writhes than in controls are read as antinociception.

Setting [4] is: 800 mg/kg oral, 72 hours, read-out: Mortality.
[5] abbreviates: 400 mg/kg oral, 72 hours, read-out: Mortality.

Where two headings read alike, the source gives them in different places.

Turning to `Cc1c(N(C)C)c(=O)n(-c2ccccc2)n1C` [Aminopyrine, reference compound], in series [1] (setting [4]), the mortality at 72 h is 100%. Besides, the Analgesic effects in the series with dd mice [2] (100 mg/kg oral) is 30%; in the series on dd mice [2] (200 mg/kg oral), 35%. Also, the “Analgesic effects (inhibition rate of stretching)” value in the series on dd mice [3] (50 mg/kg oral) stood at 14%; in the series on dd mice [3] (100 mg/kg oral), 47%; in the series with dd mice [3] (150 mg/kg oral) it was 60%.

With `CC(C(=O)O)c1cc(Cl)c2c(c1)C=CC(C)(C)N2` (stereo not drawn) [Compound 35, 2-(8-Chloro-1,2-dihydro-2,2-dimethylquinolin-6-yl)propionic acid], the mortality at 72 h in series [1] (setting [5]) came to 0%; in series [1] (setting [4]), 20%. The Analgesic effects is 35% in the series with dd mice [2] (100 mg/kg oral) and 50% with dd mice [2] (200 mg/kg oral). The “Analgesic effects (inhibition rate of stretching)” value with dd mice [3] (50 mg/kg oral) turned out to be 37%; in the series on dd mice [3] (100 mg/kg oral), 52%; in the series on dd mice [3] (150 mg/kg oral), 68%.

As to `CC(C(=O)O)c1cc(Cl)c2c(c1)CCC(C)(C)N2` (stereo not drawn) [Compound 36, 2-(8-Chloro-1,2,3,4-tetrahydro-2,2-dimethylquinolin-6-yl)propionic acid], the mortality at 72 h in series [1] (setting [5]) turned out to be 0%; in series [1] (setting [4]) it was 10%. Also, the Analgesic effects with dd mice [2] (100 mg/kg oral) is reported as 30%; in the series on dd mice [2] (200 mg/kg oral) it was 55%. Besides, the “Analgesic effects (inhibition rate of stretching)” value in the series with dd mice [3] (50 mg/kg oral) was 36%; with dd mice [3] (100 mg/kg oral), 61%; with dd mice [3] (150 mg/kg oral), 73%.

In series [1] (po, 600 mg/kg), `CCCCC1C(=O)N(c2ccccc2)N(c2ccccc2)C1=O` [Phenylbutazone, reference compound] had a mortality at 72 h of 100%.
